Laboratory results as given in patent publication US12258327B2, “5-membered heteroaryl-containing aminopyridine compounds as EGFR inhibitors” (YUHAN CORPORATION, priority 2021, dated 2025).
Like-named read-outs stand apart in the source and are kept apart here.

Columns and labels:
EGFR del19/T790M/C797S = EGFR del19/T790M/C797S (Homo sapiens, UniProt P00533, C797S/DEL746-750/T790M); assay: Biochemical EGFR kinase assay (Lance Ultra TR-FRET), triple mutant del19/T790M/C797S
Outline: (§1)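 Kinase activity is measured by TR-FRET phosphopeptide detection. Compounds span 0.003 μM to 10 μM; the 1 h reaction at room temperature is quenched with EDTA, then labelled antibody (2 nM) is incubated 60 min before reading.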

EGFR L858R/T790M/C797S = EGFR L858R/T790M/C797S (Homo sapiens, UniProt P00533, C797S/L858R/T790M); assay: Biochemical EGFR kinase assay (Lance Ultra TR-FRET), triple mutant L858R/T790M/C797S
Sequence of EGFR L858R/T790M/C797S (P00533 25-1210 T790M/C797S/L858R): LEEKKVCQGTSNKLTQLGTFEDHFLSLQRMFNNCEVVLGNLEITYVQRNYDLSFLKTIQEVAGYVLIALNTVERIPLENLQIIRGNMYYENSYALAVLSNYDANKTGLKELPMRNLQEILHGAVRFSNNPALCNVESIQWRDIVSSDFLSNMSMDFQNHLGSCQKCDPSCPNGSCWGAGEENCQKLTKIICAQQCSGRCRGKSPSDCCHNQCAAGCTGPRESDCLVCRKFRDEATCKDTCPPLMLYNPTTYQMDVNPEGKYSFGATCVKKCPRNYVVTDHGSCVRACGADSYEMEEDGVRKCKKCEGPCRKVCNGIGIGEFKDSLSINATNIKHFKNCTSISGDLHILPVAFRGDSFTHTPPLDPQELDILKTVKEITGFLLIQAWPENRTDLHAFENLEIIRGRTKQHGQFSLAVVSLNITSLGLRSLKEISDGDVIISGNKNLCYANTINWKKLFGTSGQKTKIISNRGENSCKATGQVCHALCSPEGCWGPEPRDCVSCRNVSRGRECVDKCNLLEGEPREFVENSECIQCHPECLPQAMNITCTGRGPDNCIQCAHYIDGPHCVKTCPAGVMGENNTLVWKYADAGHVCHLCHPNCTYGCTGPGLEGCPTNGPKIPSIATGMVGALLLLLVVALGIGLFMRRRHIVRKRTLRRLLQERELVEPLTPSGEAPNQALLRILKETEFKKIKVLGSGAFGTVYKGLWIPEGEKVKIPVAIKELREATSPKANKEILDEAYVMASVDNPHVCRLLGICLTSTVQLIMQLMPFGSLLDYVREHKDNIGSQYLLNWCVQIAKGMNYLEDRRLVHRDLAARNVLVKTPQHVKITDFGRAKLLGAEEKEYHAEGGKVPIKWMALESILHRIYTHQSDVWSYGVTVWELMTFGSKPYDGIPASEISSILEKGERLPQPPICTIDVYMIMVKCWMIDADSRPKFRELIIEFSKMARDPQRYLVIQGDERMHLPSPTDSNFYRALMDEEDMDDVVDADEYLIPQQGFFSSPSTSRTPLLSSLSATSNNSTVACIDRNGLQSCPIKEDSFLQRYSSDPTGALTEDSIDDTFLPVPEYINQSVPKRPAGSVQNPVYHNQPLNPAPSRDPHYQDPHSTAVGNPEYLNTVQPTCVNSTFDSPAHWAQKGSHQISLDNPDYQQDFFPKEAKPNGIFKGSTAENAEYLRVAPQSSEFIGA
Outline: as §1

EGFR del19/C797S = EGFR del19/C797S (Homo sapiens, UniProt P00533, C797S/DEL746-750); assay: Biochemical EGFR kinase assay (Lance Ultra TR-FRET), double mutant del19/C797S
Outline: as §1

EGFR L858R/C797S = EGFR L858R/C797S (Homo sapiens, UniProt P00533, C797S/L858R); assay: Biochemical EGFR kinase assay (Lance Ultra TR-FRET), double mutant L858R/C797S
Sequence of EGFR L858R/C797S (P00533 25-1210 C797S/L858R): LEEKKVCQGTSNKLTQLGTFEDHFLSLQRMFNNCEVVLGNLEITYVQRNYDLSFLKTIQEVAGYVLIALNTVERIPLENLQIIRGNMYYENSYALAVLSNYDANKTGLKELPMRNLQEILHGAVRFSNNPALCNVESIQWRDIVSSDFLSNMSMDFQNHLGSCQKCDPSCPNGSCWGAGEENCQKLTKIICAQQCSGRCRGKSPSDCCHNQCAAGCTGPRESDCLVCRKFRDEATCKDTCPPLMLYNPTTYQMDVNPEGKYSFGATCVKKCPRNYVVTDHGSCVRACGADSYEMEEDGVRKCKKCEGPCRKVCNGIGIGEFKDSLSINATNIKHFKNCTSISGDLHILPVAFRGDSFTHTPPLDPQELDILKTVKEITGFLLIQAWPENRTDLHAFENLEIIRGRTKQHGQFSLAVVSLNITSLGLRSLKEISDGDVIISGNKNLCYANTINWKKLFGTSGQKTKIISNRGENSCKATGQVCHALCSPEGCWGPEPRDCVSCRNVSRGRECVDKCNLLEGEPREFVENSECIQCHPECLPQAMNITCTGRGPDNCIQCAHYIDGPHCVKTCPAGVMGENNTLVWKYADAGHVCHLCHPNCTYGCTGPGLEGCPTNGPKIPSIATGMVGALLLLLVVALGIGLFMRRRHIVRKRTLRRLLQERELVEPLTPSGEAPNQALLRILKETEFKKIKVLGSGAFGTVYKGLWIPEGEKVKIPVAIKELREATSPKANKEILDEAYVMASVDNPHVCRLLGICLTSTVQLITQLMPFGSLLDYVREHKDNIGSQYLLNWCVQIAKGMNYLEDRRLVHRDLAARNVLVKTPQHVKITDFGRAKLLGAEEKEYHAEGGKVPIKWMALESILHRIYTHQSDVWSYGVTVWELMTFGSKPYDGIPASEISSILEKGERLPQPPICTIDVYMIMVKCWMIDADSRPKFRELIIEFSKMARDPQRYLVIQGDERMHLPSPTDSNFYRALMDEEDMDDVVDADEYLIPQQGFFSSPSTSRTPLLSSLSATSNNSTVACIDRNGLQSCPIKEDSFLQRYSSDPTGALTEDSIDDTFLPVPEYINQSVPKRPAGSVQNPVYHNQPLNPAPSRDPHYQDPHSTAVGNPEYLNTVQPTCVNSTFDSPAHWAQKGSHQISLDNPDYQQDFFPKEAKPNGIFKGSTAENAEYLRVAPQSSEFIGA
Outline: as §1

EGFR wildtype (WT) = EGFR wildtype (WT) (Homo sapiens, UniProt P00533); assay: Biochemical EGFR kinase assay (Lance Ultra TR-FRET), wildtype
Sequence of EGFR wildtype (WT) (P00533 25-1210): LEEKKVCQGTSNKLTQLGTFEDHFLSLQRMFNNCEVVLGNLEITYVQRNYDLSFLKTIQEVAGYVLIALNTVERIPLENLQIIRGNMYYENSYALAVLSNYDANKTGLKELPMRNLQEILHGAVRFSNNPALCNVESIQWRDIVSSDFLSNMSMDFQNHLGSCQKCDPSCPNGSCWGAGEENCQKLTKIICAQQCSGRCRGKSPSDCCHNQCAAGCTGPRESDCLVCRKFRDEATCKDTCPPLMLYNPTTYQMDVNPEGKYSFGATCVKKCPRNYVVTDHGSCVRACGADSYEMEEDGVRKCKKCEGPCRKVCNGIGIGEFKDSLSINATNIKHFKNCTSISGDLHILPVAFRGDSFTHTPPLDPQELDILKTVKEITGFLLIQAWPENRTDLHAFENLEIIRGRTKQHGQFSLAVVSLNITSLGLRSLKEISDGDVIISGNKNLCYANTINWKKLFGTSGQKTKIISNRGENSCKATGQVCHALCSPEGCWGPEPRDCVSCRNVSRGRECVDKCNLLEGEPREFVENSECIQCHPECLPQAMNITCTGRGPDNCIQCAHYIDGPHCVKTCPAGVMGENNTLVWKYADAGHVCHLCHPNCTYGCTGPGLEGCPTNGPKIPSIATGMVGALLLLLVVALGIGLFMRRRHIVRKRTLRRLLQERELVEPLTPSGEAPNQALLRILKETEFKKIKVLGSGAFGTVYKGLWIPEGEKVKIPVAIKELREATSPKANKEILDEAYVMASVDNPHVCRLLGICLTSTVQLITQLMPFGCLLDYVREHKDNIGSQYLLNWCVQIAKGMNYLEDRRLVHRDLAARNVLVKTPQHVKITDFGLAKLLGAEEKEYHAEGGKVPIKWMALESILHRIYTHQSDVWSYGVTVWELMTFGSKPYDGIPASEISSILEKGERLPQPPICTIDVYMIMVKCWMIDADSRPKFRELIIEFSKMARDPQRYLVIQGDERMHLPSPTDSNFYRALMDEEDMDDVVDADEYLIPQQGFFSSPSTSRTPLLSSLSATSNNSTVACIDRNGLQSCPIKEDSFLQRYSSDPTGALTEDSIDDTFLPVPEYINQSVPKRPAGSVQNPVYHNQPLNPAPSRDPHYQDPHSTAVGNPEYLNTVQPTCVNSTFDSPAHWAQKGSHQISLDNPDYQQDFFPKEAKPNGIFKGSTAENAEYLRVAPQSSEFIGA
Outline: as §1

[1] = Km ATP, read-out: IC50 del19/T790M/C797S (nM) Km ATP
[2] = Km ATP, read-out: IC50 L858R/T790M/C797S (nM) Km ATP
[3] = Km ATP, read-out: IC50 del19/C797S (nM) Km ATP
[4] = Km ATP, read-out: IC50 L858R/C797S (nM) Km ATP
[5] = Km ATP, read-out: IC50 WT (nM) Km ATP
[6] = IC50 del19/T790M/C797S (nM) 100 μM ATP, 100 μM ATP
[7] = IC50 L858R/T790M/C797S (nM) 100 μM ATP, 100 μM ATP
[8] = IC50 del19/C797S (nM) 100 μM ATP, 100 μM ATP
[9] = IC50 L858R/C797S (nM) 100 μM ATP, 100 μM ATP
[10] = IC50 WT (nM) 100 μM ATP, 100 μM ATP

Sequence of EGFR del19/T790M/C797S (P00533 with tags, fused parts or gaps DEL746-750/T790M/C797S): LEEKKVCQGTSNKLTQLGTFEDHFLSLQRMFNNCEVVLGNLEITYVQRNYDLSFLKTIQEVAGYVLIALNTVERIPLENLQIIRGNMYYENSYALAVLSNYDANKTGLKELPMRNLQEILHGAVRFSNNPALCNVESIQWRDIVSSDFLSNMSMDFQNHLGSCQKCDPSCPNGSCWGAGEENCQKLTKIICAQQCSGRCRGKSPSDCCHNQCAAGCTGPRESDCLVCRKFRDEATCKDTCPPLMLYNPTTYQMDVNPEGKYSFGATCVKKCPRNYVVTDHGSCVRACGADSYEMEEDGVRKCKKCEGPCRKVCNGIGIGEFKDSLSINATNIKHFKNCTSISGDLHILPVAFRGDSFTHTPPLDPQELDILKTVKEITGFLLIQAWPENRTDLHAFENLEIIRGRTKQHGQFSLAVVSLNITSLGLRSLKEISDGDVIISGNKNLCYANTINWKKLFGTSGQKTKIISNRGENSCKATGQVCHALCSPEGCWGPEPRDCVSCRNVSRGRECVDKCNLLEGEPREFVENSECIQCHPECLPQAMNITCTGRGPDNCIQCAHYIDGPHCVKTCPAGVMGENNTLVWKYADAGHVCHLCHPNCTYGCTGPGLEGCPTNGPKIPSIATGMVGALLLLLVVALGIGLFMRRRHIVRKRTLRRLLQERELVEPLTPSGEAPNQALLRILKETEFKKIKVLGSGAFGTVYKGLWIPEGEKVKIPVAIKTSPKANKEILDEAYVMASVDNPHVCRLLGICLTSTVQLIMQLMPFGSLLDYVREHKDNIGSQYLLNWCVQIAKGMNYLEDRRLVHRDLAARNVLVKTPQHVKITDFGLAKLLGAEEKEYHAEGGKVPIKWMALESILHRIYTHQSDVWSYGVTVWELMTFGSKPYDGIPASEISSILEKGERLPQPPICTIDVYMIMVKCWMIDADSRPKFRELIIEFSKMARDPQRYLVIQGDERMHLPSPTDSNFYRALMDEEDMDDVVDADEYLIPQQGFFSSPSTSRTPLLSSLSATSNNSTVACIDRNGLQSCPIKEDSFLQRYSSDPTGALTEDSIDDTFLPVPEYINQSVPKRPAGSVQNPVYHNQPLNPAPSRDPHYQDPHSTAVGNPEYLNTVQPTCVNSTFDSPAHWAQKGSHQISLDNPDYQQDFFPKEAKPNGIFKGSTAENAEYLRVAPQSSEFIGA

Row | Structure (SMILES) | IC50 (EGFR del19/T790M/C797S; [1]) | IC50 (EGFR del19/T790M/C797S; read-out: IC50 del19/T790M/C797S (nM) 100 μM ATP, 100 μM ATP) | IC50 (EGFR L858R/T790M/C797S; [2]) | IC50 (EGFR L858R/T790M/C797S; read-out: IC50 L858R/T790M/C797S (nM) 100 μM ATP, 100 μM ATP) | IC50 (EGFR del19/C797S; [3]) | IC50 (EGFR del19/C797S; read-out: IC50 del19/C797S (nM) 100 μM ATP, 100 μM ATP) | IC50 (EGFR L858R/C797S; [4]) | IC50 (EGFR wildtype (WT); [5]) | IC50 (EGFR wildtype (WT); read-out: IC50 WT (nM) 100 μM ATP, 100 μM ATP) | IC50 (EGFR del19/T790M/C797S; [6]) | IC50 (EGFR L858R/T790M/C797S; [7]) | IC50 (EGFR del19/C797S; [8]) | IC50 (EGFR L858R/C797S; [9]) | IC50 (EGFR wildtype (WT); [10]) | IC50 (EGFR del19/T790M/C797S; Km ATP, read-out: IC50 del19/T790M/C797S, Km ATP) | IC50 (EGFR L858R/T790M/C797S; Km ATP, read-out: IC50 L858R/T790M/C797S, Km ATP) | IC50 (EGFR del19/C797S; Km ATP, read-out: IC50 del19/C797S, Km ATP) | IC50 (EGFR L858R/C797S; Km ATP, read-out: IC50 L858R/C797S, Km ATP) | IC50 (EGFR wildtype (WT); Km ATP, read-out: IC50 WT, Km ATP)
1 | CN(C)[C@H]1CC[C@H](CNc2cc(Nc3ccnc(-c4cnn(S(=O)(=O)C5CC5)c4)n3)ncc2-c2ccn(C(F)F)n2)CC1 [Example 25, N^2-(2-(1-(Cyclopropylsulfonyl)-1H-pyrazol-4-yl)pyrimidin-4-yl)-5-(1-(difluoromethyl)-1H-pyrazol-3-yl)-N^4-(((1r,4r)-4-(dimethylamino)cyclohexyl)methyl)pyridine-2,4-diamine] | 0.1 nM | 0.1 nM | 0.02 nM | 0.1 nM | 0.2 nM | 0.3 nM | 0.3 nM | 2.7 nM | 2050 nM | – | – | – | – | – | – | – | – | – | –
2 | Cn1nc(-c2cnc(Nc3ccnc(-c4cnn(S(=O)(=O)C5CC5)c4)n3)cc2N[C@H]2CCC[C@H](CO)C2)cc1C(F)(F)F [Example 260, ((1S,3S)-3-((2-((2-(1-(Cyclopropylsulfonyl)-1H-pyrazol-4-yl)pyrimidin-4-yl)amino)-5-(1-methyl-5-(trifluoromethyl)-1H-pyrazol-3-yl)pyridin-4-yl)amino)cyclohexyl)methanol] | 8.6 nM | – | 3.8 nM | – | 5 nM | – | 2.7 nM | 27.1 nM | – | 9.8 nM | 4.3 nM | 8.7 nM | 59.9 nM | 5230 nM | – | – | – | – | –
3 | CN(C)C(=O)[C@H]1CC[C@@H](Nc2cc(Nc3ccnc(-c4cnn(S(=O)(=O)C5CC5)c4)n3)ncc2-c2cc(C(F)(F)F)n(C)n2)CC1 [Example 257, (1s,4s)-4-((2-((2-(1-(Cyclopropylsulfonyl)-1H-pyrazol-4-yl)pyrimidin-4-yl)amino)-5-(1-methyl-5-(trifluoromethyl)-1H-pyrazol-3-yl)pyridin-4-yl)amino)-N,N-dimethylcyclohexane-1-carboxamide] | 4.3 nM | – | 1.1 nM | – | 2.1 nM | – | 5.2 nM | 7.5 nM | – | 3.7 nM | 1.6 nM | 6 nM | 29.1 nM | 294 nM | – | – | – | – | –
4 | CN(C)C[C@H]1CC[C@@H](Nc2cc(Nc3ccnc(-c4cnn(S(=O)(=O)C5CC5)c4)n3)ncc2-c2cc3n(n2)CCCC3)CC1 [Example 277, N^2-(2-(1-(Cyclopropylsulfonyl)-1H-pyrazol-4-yl)pyrimidin-4-yl)-N^4-((1s,4s)-4-((dimethylamino)methyl)cyclohexyl)-5-(4,5,6,7-tetrahydropyrazolo[1,5-a]pyridin-2-yl)pyridine-2,4-diamine] | 0.2 nM | – | 0.1 nM | – | 0.2 nM | – | 0.2 nM | 0.4 nM | – | 0.3 nM | 0.3 nM | 0.5 nM | 1.6 nM | 47.5 nM | – | – | – | – | –
5 | C[C@]1(O)CC[C@@H](Nc2cc(Nc3ccnc(-c4cnn(S(=O)(=O)C5CC5)c4)n3)ncc2-c2ccn(C3COC3)n2)CC1 [Example 292, (1s,4s)-4-((2-((2-(1-(Cyclopropylsulfonyl)-1H-pyrazol-4-yl)pyrimidin-4-yl)amino)-5-(1-(oxetan-3-yl)-1H-pyrazol-3-yl)pyridin-4-yl)amino)-1-methylcyclohexan-1-ol] | 0.5 nM | – | 0.1 nM | – | 0.4 nM | – | 0.1 nM | – | – | 0.2 nM | 0.2 nM | 0.8 nM | 6.6 nM | 6970 nM | – | – | – | – | –
6 | O=S(=O)(C1CC1)n1cc(-c2nccc(Nc3cc(N[C@H]4CC[C@@H](CO)CC4)c(-c4ccn(C5COC5)n4)cn3)n2)cn1 [Example 282, ((1s,4s)-4-((2-((2-(1-(Cyclopropylsulfonyl)-1H-pyrazol-4-yl)pyrimidin-4-yl)amino)-5-(1-(oxetan-3-yl)-1H-pyrazol-3-yl)pyridin-4-yl)amino)cyclohexyl)methanol] | 0.3 nM | – | 0.1 nM | – | 0.1 nM | – | 0.1 nM | 0.6 nM | – | 0.3 nM | 0.3 nM | 0.5 nM | 0.7 nM | 370 nM | – | – | – | – | –
7 | O=S(=O)(C1CC1)n1cc(-c2nccc(Nc3cc(OC4CCC(O)C4)c(-c4cnn(C(F)F)c4)cn3)n2)cn1 (stereo not shown) [Example 72, 3-((2-((2-(1-(Cyclopropylsulfonyl)-1H-pyrazol-4-yl)pyrimidin-4-yl)amino)-5-(1-(difluoromethyl)-1H-pyrazol-4-yl)pyridin-4-yl)oxy)cyclopentan-1-ol] | 0.9 nM | – | 0.8 nM | – | 31.4 nM | – | 9.4 nM | 199 nM | – | 0.8 nM | 5.8 nM | 21.8 nM | 189 nM | > 10000 nM | – | – | – | – | –
8 | C[C@]1(O)CC[C@@H](Nc2cc(Nc3ccnc(-c4cnn(CC(F)F)c4)n3)ncc2-c2ccn(C(F)(F)F)n2)CC1 [Example 340, (1s,4s)-4-((2-((2-(1-(2,2-Difluoroethyl)-1H-pyrazol-4-yl)pyrimidin-4-yl)amino)-5-(1-(trifluoromethyl)-1H-pyrazol-3-yl)pyridin-4-yl)amino)-1-methylcyclohexan-1-ol] | – | – | – | – | – | – | – | – | – | – | – | – | – | – | 0.5 nM | 0.3 nM | 21.4 nM | 6.7 nM | 173 nM
9 | O=S(=O)(C1CC1)n1cc(-c2nccc(Nc3cc(N[C@H]4CC[C@@H](CN5CCC5)CC4)c(-c4ccn(CC(F)F)n4)cn3)n2)cn1 [Example 247, N^4-((1s,4s)-4-(Azetidin-1-ylmethyl)cyclohexyl)-N^2-(2-(1-(cyclopropylsulfonyl)-1H-pyrazol-4-yl)pyrimidin-4-yl)-5-(1-(2,2-difluoroethyl)-1H-pyrazol-3-yl)pyridine-2,4-diamine] | 0.3 nM | – | 0.1 nM | – | 0.2 nM | – | 0.2 nM | 0.7 nM | – | 0.2 nM | 0.1 nM | 0.3 nM | 0.7 nM | 150 nM | – | – | – | – | –
10 | O=S(=O)(C1CC1)n1cc(-c2nccc(Nc3cc(NC[C@H]4CC[C@H](CO)CC4)c(-c4ccn(C(F)F)n4)cn3)n2)cn1 [Example 22, ((1r,4r)-4-(((2-((2-(1-(Cyclopropylsulfonyl)-1H-pyrazol-4-yl)pyrimidin-4-yl)amino)-5-(1-(difluoromethyl)-1H-pyrazol-3-yl)pyridin-4-yl)amino)methyl)cyclohexyl)methanol] | 0.9 nM | – | 0.4 nM | – | – | – | 4.4 nM | 22.4 nM | – | 1.1 nM | 1.2 nM | 2.1 nM | 21.5 nM | > 10000 nM | – | – | – | – | –
11 | CS(=O)(=O)n1ccc(-c2nccc(Nc3cc(N[C@H]4CC[C@@](C)(O)CC4)c(-c4ccn(C(F)F)n4)cn3)n2)c1 [Example 108, (1s,4s)-4-((5-(1-(Difluoromethyl)-1H-pyrazol-3-yl)-2-((2-(1-(methylsulfonyl)-1H-pyrrol-3-yl)pyrimidin-4-yl)amino)pyridin-4-yl)amino)-1-methylcyclohexan-1-ol] | 1.2 nM | – | 0.5 nM | – | 23.7 nM | – | 2 nM | 57.2 nM | – | – | – | – | – | – | – | – | – | – | –
